Among the data in ChEMBL document CHEMBL4699475, “Campafungins: Inhibitors of Candida albicans and Cryptococcus neoformans Hyphal Growth” (2020) are MIC, Activity and inhibition values, retold here.

Each structure is given as a SMILES string. Calls of active or inactive are those of the source. The calls are words filed in the database; no cut-off is given here.

One assay deals with Nakaseomyces glabratus. The assay can be described thus: Antimicrobial activity against Candida glabrata ATCC 2001 assessed as reduction in microbial growth after 48 hrs by resazurin staining based liquid serial dilution assay. The class given is functional. In general terms: Resazurin is reduced to fluorescent resorufin, in cell work by metabolically active cells.
In another assay the test system is Candida tropicalis. Kind of assay: Antimicrobial activity against Candida tropicalis ATCC 750 assessed as reduction in microbial growth after 48 hrs by resazurin staining based liquid serial dilution assay. The class given is functional.
For assay [1], the system named is Cryptococcus neoformans. Kind of assay: Antimicrobial activity against Cryptococcus neoformans H99 assessed as reduction in microbial growth after 72 hrs by resazurin staining based liquid serial dilution assay. The assay is classed as functional.
The test system of assay [2] is Candida albicans. Kind of assay: Antimicrobial activity against Candida albicans ATCC 10231 assessed as reduction in microbial growth after 48 hrs by resazurin staining based liquid serial dilution assay. The class given is functional.
Assay [3] deals with Aspergillus fumigatus. The assay can be described thus: Antimicrobial activity against Aspergillus fumigatus FSGC A1240 assessed as reduction in microbial growth after 48 hrs by resazurin staining based liquid serial dilution assay. The assay is classed as functional.
For another assay, the system named is Staphylococcus aureus. The assay can be described thus: Antimicrobial activity against Staphylococcus aureus ATCC 43300 assessed as reduction in microbial growth after 24 hrs by resazurin staining based liquid serial dilution assay. The assay is classed as functional.
Assay [4] deals with Cryptococcus neoformans. The assay can be described thus: Antimicrobial activity against Cryptococcus neoformans H99 harboring pde1 deletion mutant assessed as reduction in microbial growth after 72 hrs by resazurin staining based liquid serial dilution assay. The assay is classed as functional, organism-based.
The test system of assay [5] is Cryptococcus neoformans. Kind of assay: Effect on cAMP signaling mediated virulence associated encapsulation phenotype in Cryptococcus neoformans H99 incubated for 72 hrs by India Ink staining based analysis. The assay is classed as functional.
Assay [6] concerns Cryptococcus neoformans. The assay can be described thus: Antimicrobial activity against Cryptococcus neoformans H99 harboring cac1 deletion mutant assessed as reduction in microbial growth after 72 hrs by resazurin staining based liquid serial dilution assay. The class given is functional, organism-based.
Assay [7] relates to Cryptococcus neoformans. Kind of assay: Antimicrobial activity against Cryptococcus neoformans H99 harboring gpa1 deletion mutant assessed as reduction in microbial growth after 72 hrs by resazurin staining based liquid serial dilution assay. The class given is functional, organism-based.
Assay [8] deals with Cryptococcus neoformans. The assay can be described thus: Antimicrobial activity against Cryptococcus neoformans H99 harboring pka1 deletion mutant assessed as reduction in microbial growth after 72 hrs by resazurin staining based liquid serial dilution assay. The assay is classed as functional, organism-based.
Assay [9] has as its system Cryptococcus neoformans. The assay can be described thus: Antimicrobial activity against Cryptococcus neoformans H99 harboring pkr1 deletion mutant assessed as reduction in microbial growth after 72 hrs by resazurin staining based liquid serial dilution assay. The class given is functional, organism-based.
In assay [10] the test system is Aspergillus fumigatus. Kind of assay: Antimicrobial activity against Aspergillus fumigatus AF293 assessed as reduction in microbial growth after 48 hrs by resazurin staining based liquid serial dilution assay. The assay is classed as functional.
In assay [11] the test system is Schizosaccharomyces pombe. Kind of assay: Antimicrobial activity against Schizosaccharomyces pombe strain SAK1 assessed as reduction in microbial growth by resazurin staining based CLSI method. The assay is classed as functional.
Assay [12] concerns Aspergillus fumigatus. Kind of assay: Inhibition of hyphal extension in Aspergillus fumigatus AF293 at 10 ug/ml measured after 48 hrs by microscopic analysis. The class given is functional, organism-based. Particulars: dose 10.0 µg/ml.
The subject of assay [13] is Candida albicans. The assay can be described thus: Inhibition of hyphal extension in Candida albicans SC3514 at 10 ug/ml measured after 24 to 48 hrs by microscopic analysis. The assay is classed as functional, organism-based. Particulars: dose 10.0 µg/ml, time 24-48 hrs.
Assay [14] concerns Candida albicans. Kind of assay: Inhibition of hyphal extension in Candida albicans SC3514 at 10 ug/ml measured at >48 hrs by microscopic analysis. Particulars: dose 10.0 µg/ml, time hrs >48. The assay is classed as functional, organism-based.
Assay [15] relates to Cryptococcus neoformans. The assay can be described thus: Effect on cAMP signaling mediated virulence associated melanin production phenotype in Cryptococcus neoformans H99 incubated for 72 hrs in presence of L-DOPA. The class given is functional.
For assay [16], the system named is Schizosaccharomyces pombe. The assay can be described thus: Antimicrobial activity against Schizosaccharomyces pombe strain SAK1 harboring MJ-1682 efflux mutant assessed as reduction in microbial growth by resazurin staining based CLSI method. The assay is classed as functional.

With `C/C=C(\C)[C@]1(O)C=C[C@@H]2CC(C)=CC[C@H]2[C@]1(O)/C=C/C=C/C=C\C=C\C(=O)O`, the MIC – broadly, the least concentration at which growth counts as inhibited – in the assay on Nakaseomyces glabratus was more than 128 µg/mL; in the assay on Candida tropicalis it was 64 µg/mL; in the assay on Cryptococcus neoformans [1], 4 µg/mL; in the assay with Candida albicans [2], 128 µg/mL; with Aspergillus fumigatus [3], 64 µg/mL; in the assay on Staphylococcus aureus, 32 µg/mL.

Regarding `C/C=C(\C)[C@]1(O)C=C[C@@H]2CC(C)=CC[C@H]2[C@]1(O)/C=C/C=C/C=C\C=C\C=C\C(=O)O`, the MIC in the assay with Nakaseomyces glabratus is more than 128 µg/mL; in the assay with Candida tropicalis, 64 µg/mL; with Cryptococcus neoformans [1], 8 µg/mL; in the assay on Candida albicans [2], more than 128 µg/mL; with Aspergillus fumigatus [3] it was 64 µg/mL; with Staphylococcus aureus it was 32 µg/mL.

`C/C=C(\C)[C@@]1(O)[C@@H](/C=C/C=C/C=C/C=C/C(=O)O)[C@@H]2CC=C(C)C[C@H]2[C@@H]2O[C@@H]21`: the MIC with Nakaseomyces glabratus is more than 128 µg/mL; with Candida tropicalis it was 64 µg/mL; in the assay on Cryptococcus neoformans [1] it was 4 µg/mL; in the assay with Candida albicans [2], 128 µg/mL; with Aspergillus fumigatus [3], 64 µg/mL; with Staphylococcus aureus, 32 µg/mL.

`C\C=C(/C=C/C=C/C=C/C=C/C(=O)O)[C@]1(O)[C@H]2CC=C(C)C[C@@H]2C=C[C@@]1(C)O`: the MIC in the assay on Nakaseomyces glabratus is more than 128 µg/mL; in the assay with Candida tropicalis, 64 µg/mL; in the assay with Cryptococcus neoformans [1] it was 8 µg/mL; in the assay with Candida albicans [2], 128 µg/mL; with Aspergillus fumigatus [3], 64 µg/mL; in the assay with Aspergillus fumigatus [10], 38 µg/mL. Moreover, the MIC was 10 µg/mL in assay [11], 64 µg/mL in the assay with Staphylococcus aureus and 2 µg/mL in assay [16]. Further, the result in the assay on Cryptococcus neoformans [4], with Cryptococcus neoformans [6], in the assay with Cryptococcus neoformans [7], with Cryptococcus neoformans [8] and in the assay on Cryptococcus neoformans [9] was Active. In addition, the result in the assay on Cryptococcus neoformans [5] and in the assay with Cryptococcus neoformans [15] was inactive. Besides, the inhibition entry in the assay with Aspergillus fumigatus [12] and with Candida albicans [13] was “Active” in each case. Besides, the inhibition entry in the assay with Candida albicans [14] is “inactive”.

Turning to `C[C@@H]1[C@H](O)[C@@H](C)/C=C/C=C/C=C/C=C/C=C/C=C/C=C/[C@H](O[C@@H]2O[C@H](C)[C@@H](O)[C@H](N)[C@@H]2O)C[C@@H]2O[C@](O)(C[C@@H](O)C[C@@H](O)[C@H](O)CC[C@@H](O)C[C@@H](O)CC(=O)O[C@H]1C)C[C@H](O)[C@H]2C(=O)O` [AMPHOTERICIN B], the MIC is 0.18 µg/mL in the assay with Nakaseomyces glabratus; 0.36 µg/mL in the assay with Candida tropicalis; 0.36 µg/mL in the assay on Cryptococcus neoformans [1]; 0.36 µg/mL in the assay with Candida albicans [2]; 0.74 µg/mL in the assay with Aspergillus fumigatus [3].
